Results reported in patent US20190169221A1, “SUBSTITUTED NUCLEOSIDES, NUCLEOTIDES AND ANALOGS THEREOF” (Janssen BioPharma, Inc., priority 2016, published 2019).
pEC50, pIC50: −log10 of the molar value.

How the values were obtained:
Human rhinovirus 75 = experiment: Enterovirus assay, HRV 75 (HeLa-OHIO cells); assay type: cell-based; settings: Rhinovirus A
Method: (§1) HeLa OHIO cells were purchased from Sigma Aldrich (St Louis, Mo.) and cultured in MEM with Glutamax (Gibco cat. #41090) supplemented with 10% FBS (Mediatech cat. #35-011-CV) and 1% penicillin/streptomycin (Mediatech cat. #30-002-CI), at 37° C. with 5% CO2. RD cells were purchased from ATCC (Manassas, Va.) and cultured in DMEM, supplemented with 10% FBS (Mediatech cat. #35-011-CV) and 1% penicillin/streptomycin (Mediatech cat. #30-002-CI), at 37° C. with 5% CO2. For […]68 and CVB3, HeLa-OHIO cells were plated at a density of 1.5×10^5 cells per mL (1.5×10^4 cells per well) in assay media (MEM without phenol red or L-glutamine (Gibco cat. #51200) supplemented with 1% FBS, 1% penicillin/streptomycin (Mediatech cat. #30-002-CI) and 1% Glutamax (Gibco cat. #35050)) in clear-bottom 96 well plates. For EV71, RD cells were plated at a density of 5×10^4 cells per mL (5000 cells per well) in assay media (DMEM supplemented with 2% FBS and 1% penicillin/streptomycin). After 24 h, media was removed and replaced with serially diluted compounds in assay media. […] After 2-6 days, cell viability was measured using CellTiter Glo Luminescent Cell Viability Assay (Promega cat. #G7572). […] Plates were incubated at R.T. for 5 mins, then luminescence was measured using a Perkin Elmer multilabel counter Victor3V. EC50 values were determined using XLFit.

Human rhinovirus 1B = experiment: Picornavirus / enterovirus assay, HRV 1B (HeLa-OHIO cells); assay type: cell-based; settings: Rhinovirus A; HeLa-OHIO cells, 33° C.; read-out: HRV 1B EC50
Human rhinovirus 16 = experiment: Enterovirus assay, HRV 16 (HeLa-OHIO cells); assay type: cell-based; settings: Rhinovirus A
Method: as §1

Zika virus = experiment: Zika viral assay (cytopathic effect, Huh-7.5 cells); assay type: cell-based; settings: Huh7.5, read-out: Zika EC50
Method: (§2) The Dengue virus type 2 strain New Guinea C (NG-C) and the Dengue virus type 4 strain H241 were purchased from ATCC (Manassas, Va.; item numbers VR-1584 and VR-1490, respectively). The Zika virus strain MR766 was purchased from ATCC (item #VR-1838) and the Zika virus strain IbH 30656 was purchased from BEI Resources (Manassas, Va.; item number NR-500066). 24 h prior to dosing, Huh-7.5 cells were plated in 96 well plates at a density of 1.5×10^5/mL in DMEM medium supplemented with 10% fetal bovine serum, 1% HEPES buffer, 1% Penicillin/Streptomycin and 1% non-essential amino acids (all Mediatech, Manassas, Va.). At the day of infection, serially diluted compounds were added to cells and incubated for 24 h. After the end of the 24 h pre-incubation period, cells were infected with either Dengue virus type 2 NG-C, Dengue virus type 4 H241, Zika virus strain MR766 or Zika virus strain IbH 30656. The virus inoculum was selected to cause 80-90% cytopathic effect in four (Zika) to five (Dengue) days. Infected cells were incubated for four to five days at 37° C., 5% CO2. To develop the assay, 100 μL media was replaced with 100 μl CellTiter-Glo® reagent (Promega, Madison, Wis.) and incubated for 10 mins at R.T. Luminescence was measured on a Victor ×3 multi-label plate reader. Potential compound cytotoxicity was determined using uninfected parallel cultures.

CVB3 = experiment: Enterovirus assay, CVB3 (HeLa-OHIO cells); assay type: cell-based, Coxsackie virus 3B; settings: Enterovirus B, 37° C.
Method: as §1

Human rhinovirus 14 = experiment: Enterovirus assay, HRV 14 (HeLa-OHIO cells); assay type: cell-based; settings: Rhinovirus B
[1] = tested on: Huh-7 cells containing the self-replicating, subgenomic HCV replicon; experiment: HCV replicon assay; assay type: cell-based; settings: Hepatitis C virus; Huh-7 replicon cells, 72 h, luciferase
EV71 = experiment: Enterovirus assay, EV71 (RD cells); assay type: cell-based; settings: Enterovirus A, 37° C.
Method: HeLa OHIO cells were purchased from Sigma Aldrich (St Louis, Mo.) and cultured in MEM with Glutamax (Gibco cat. #41090) supplemented with 10% FBS (Mediatech cat. #35-011-CV) and 1% penicillin/streptomycin (Mediatech cat. #30-002-CI), at 37° C. with 5% CO2. RD cells were purchased from ATCC (Manassas, Va.) and cultured in DMEM, supplemented with 10% FBS (Mediatech cat. #35-011-CV) and 1% penicillin/streptomycin (Mediatech cat. #30-002-CI), at 37° C. with 5% CO2. For […]68 and CVB3, HeLa-OHIO cells were plated at a density of 1.5×10^5 cells per mL (1.5×10^4 cells per well) in assay media (MEM without phenol red or L-glutamine (Gibco cat. #51200) supplemented with 1% FBS, 1% penicillin/streptomycin (Mediatech cat. #30-002-CI) and 1% Glutamax (Gibco cat. #35050)) in clear-bottom 96 well plates. For EV71, RD cells were plated at a density of 5×10^4 cells per mL (5000 cells per well) in assay media (DMEM supplemented with 2% FBS and 1% penicillin/streptomycin). After 24 h, media was removed and replaced with serially diluted compounds in assay media. For EC50 measurements, cells were infected in 100 μL assay media with a virus inoculum sufficient to obtain to cause 80-90% cytopathic effect. After 2-6 days, cell viability was measured using CellTiter Glo Luminescent Cell Viability Assay (Promega cat. #G7572). Cells infected with EV-71, EV-68 and CVB3 were cultured at 37° C., while cells infected with hV1b, hV-16, hV-75 were cultured at 33° C. 100 μL media was removed from each well and 100 μL CellTiter Glo reagent was added. Plates were incubated at R.T. for 5 mins, then luminescence was measured using a Perkin Elmer multilabel counter Victor3V. EC50 values were determined using XLFit.

[2] = tested on: Dengue virus type 2 strain New Guinea C (NG-C); experiment: Dengue viral assay (cytopathic effect, Huh-7.5 cells); assay type: cell-based; settings: Huh7.5, Dengue virus type 2 (NG-C strain), read-out: Dengue NGC EC50
Method: as §2

[3] = target: human rhinovirus 16 polymerase (HRV16pol) (Human rhinovirus 16, UniProt Q82122); experiment: Picornavirus polymerase inhibition assay; assay type: biochemical; settings: triphosphates, read-out: Viral Polymerase Inhibition IC50 Picornavirus
Method: The enzyme activity of human rhinovirus 16 polymerase (HRV16pol) was measured as an incorporation of tritiated NMP into acid-insoluble RNA products. hV16pol assay reactions contained […] recombinant enzyme, 50 nM heteropolymeric RNA, about 0.5 μCi tritiated NTP, 0.1 mM of competing cold NTP, 40 mM Tris-HCl (pH 7.0), […] dithiothreitol and 0.5 mM MgCl2. Standard reactions were incubated for 2.5 h at 30° C., in the presence of increasing concentration of inhibitor. At the end of the reaction, RNA was precipitated with 10% TCA and acid-insoluble RNA products were filtered on a size exclusion 96-well plate. After washing of the plate, scintillation liquid was added and radiolabeled RNA products were detected using standard procedures with a Trilux Microbeta scintillation counter. The compound concentration at which the enzyme-catalyzed rate was reduced by 50% (IC50) was calculated by fitting the data to a non-linear regression (sigmoidal).

Dengue viral polymerase = Dengue viral polymerase (Dengue virus type 2, UniProt P14340); experiment: biochemical; settings: triphosphates; read-out: Viral Polymerase Inhibition IC50 Dengue
NS5B-BK (Delta-21) = NS5B-BK (Delta-21) (Hepatitis C virus genotype 1b, UniProt P26663); experiment: biochemical; set-up: species or system HCV
NS5B-BK (Delta-21), sequence (P26663 2420-2989 limits assumed): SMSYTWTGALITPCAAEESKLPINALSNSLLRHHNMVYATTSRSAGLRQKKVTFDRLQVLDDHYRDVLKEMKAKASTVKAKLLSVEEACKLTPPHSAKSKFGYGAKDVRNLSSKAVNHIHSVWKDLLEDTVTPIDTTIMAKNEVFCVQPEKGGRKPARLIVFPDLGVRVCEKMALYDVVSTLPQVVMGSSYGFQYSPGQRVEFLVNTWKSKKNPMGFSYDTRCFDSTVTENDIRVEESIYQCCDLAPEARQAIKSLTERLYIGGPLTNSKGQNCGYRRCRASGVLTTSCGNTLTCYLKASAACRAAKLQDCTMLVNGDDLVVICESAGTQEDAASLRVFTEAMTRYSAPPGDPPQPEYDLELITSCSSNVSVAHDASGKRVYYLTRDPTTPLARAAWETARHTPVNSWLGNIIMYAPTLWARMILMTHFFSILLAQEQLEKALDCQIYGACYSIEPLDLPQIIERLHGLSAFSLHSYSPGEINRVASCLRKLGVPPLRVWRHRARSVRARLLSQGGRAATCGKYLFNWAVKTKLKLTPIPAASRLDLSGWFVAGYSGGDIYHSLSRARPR

human rhinovirus 16 polymerase (HRV16pol), sequence (Q82122 1694-2153 limits assumed): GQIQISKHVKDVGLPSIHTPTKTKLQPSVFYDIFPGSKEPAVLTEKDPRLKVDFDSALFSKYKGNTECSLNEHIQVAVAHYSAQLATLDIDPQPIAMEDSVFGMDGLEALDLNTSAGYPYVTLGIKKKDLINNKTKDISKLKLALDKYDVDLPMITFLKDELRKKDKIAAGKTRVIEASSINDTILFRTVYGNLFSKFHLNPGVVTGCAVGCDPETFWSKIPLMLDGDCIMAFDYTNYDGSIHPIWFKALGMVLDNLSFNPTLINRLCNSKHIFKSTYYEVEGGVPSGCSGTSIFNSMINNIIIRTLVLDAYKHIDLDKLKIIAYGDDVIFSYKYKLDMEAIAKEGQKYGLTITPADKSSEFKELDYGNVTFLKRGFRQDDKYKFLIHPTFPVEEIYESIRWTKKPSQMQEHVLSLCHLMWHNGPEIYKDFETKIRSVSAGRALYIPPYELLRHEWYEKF

Row | SMILES | pEC50 (Human rhinovirus 1B) | pEC50 [2] | pIC50 [3] | pIC50 (Dengue viral polymerase) | pIC50 (NS5B-BK (Delta-21)) | further results
1 | C#C[C@]1(O)[C@H](n2cnc3c(N)ncnc32)O[C@](F)(CO)[C@H]1O [Compound 1, (2S,3S,4R,5R)-5-(6-amino-9H-purin-9-yl)-4-ethynyl-2-fluoro-2-(hydroxymethyl)tetrahydrofuran-3,4-diol] | > 5.52 | > 5.52 |  |  |  | pEC50 (Human rhinovirus 75): > 5.52; pEC50 (Human rhinovirus 16): > 5.52; pEC50 (Zika virus): > 5.52; pEC50 (CVB3): > 5.52; pEC50 (Human rhinovirus 14): > 5.52; pEC50 [1]: > 5.52; pEC50 (EV71): > 5.52
2 | C#C[C@]1(O)[C@H](n2cc(F)c3c(N)ncnc32)O[C@](F)(CO)[C@H]1O [Compound 7, (2S,3S,4R,5R)-5-(4-amino-5-fluoro-7H-pyrrolo[2,3-d]pyrimidin-7-yl)-4-ethynyl-2-fluoro-2-(hydroxymethyl)tetrahydrofuran-3,4-diol] | > 5.52 | > 5.52 |  |  |  | pEC50 (EV71): > 5.52
3 | C[C@]1(O)[C@H](n2cnc3c(N)ncnc32)O[C@](F)(CO)[C@H]1O [Compound 13, (2S,3S,4R,5R)-5-(6-amino-9H-purin-9-yl)-2-fluoro-2-(hydroxymethyl)-4-methyltetrahydrofuran-3,4-diol] | 4.52 to 5.52 | < 4.00 |  |  |  | pEC50 [1]: 4.52 to 5.52
4 | C[C@]1(F)[C@H](n2cnc3c(N)nc(N)nc32)O[C@](F)(CO)[C@H]1O [Compound 15, (2S,3S,4R,5R)-5-(2,6-diamino-9H-purin-9-yl)-2,4-difluoro-2-(hydroxymethyl)-4-methyltetrahydrofuran-3-ol] | 4.00 to 4.52 | < 4.00 |  |  |  | pEC50 [1]: < 4.00
5 | C=C=C[C@@]1(O)[C@H](O)[C@@H](COP(=O)(O)OP(=O)(O)OP(=O)(O)O)O[C@H]1n1cnc2c(N)ncnc21 [Compound 25] |  |  | 4.52 to 5.52 | 4.52 to 5.52 | > 5.52 | 
6 | C#C[C@@]1(O)[C@H](O)[C@@H](CO)O[C@H]1c1ccc2c(N)ncnn12 [Compound 26, (2S,3R,4R,5R)-2-(4-aminopyrrolo[2,1-f][1,2,4]triazin-7-yl)-3-ethynyl-5-(hydroxymethyl)tetrahydrofuran-3,4-diol] | > 5.52 | > 5.52 |  |  |  | pEC50 (EV71): > 5.52
7 | C#C[C@@]1(O)[C@H](O)[C@@H](COP(=O)(O)OP(=O)(O)OP(=O)(O)O)O[C@H]1n1cnc2c(=O)[nH]cnc21 [Compound 35] |  |  | < 4.00 | > 5.52 | > 5.52 | 
8 | C#C[C@]1(OC(=O)C(C)C)[C@H](n2cnc3c(N)ncnc32)O[C@](F)(COC(=O)C(C)C)[C@H]1OC(=O)C(C)C [Compound 43, (2S,3S,4R,5R)-5-(6-amino-9H-purin-9-yl)-4-ethynyl-2-fluoro-2-((isobutyryloxy)methyl)tetrahydrofuran-3,4-diylbis(2-methylpropanoate)] | > 5.52 | > 5.52 |  |  |  | pEC50 (EV71): > 5.52
9 | C#C[C@]1(O)[C@H](n2cc(C#N)c3c(N)ncnc32)O[C@](F)(COP(=O)(O)OP(=O)(O)OP(=O)(O)O)[C@H]1O [Compound 45] |  |  | > 5.52 | > 5.52 | > 5.52 | 
10 | C#C[C@]1(O)[C@H](n2cc(C(N)=O)c3c(N)ncnc32)O[C@](F)(COP(=O)(O)OP(=O)(O)OP(=O)(O)O)[C@H]1O [Compound 50] |  |  | > 5.52 | > 5.52 | 4.52 to 5.52 | 
11 | C#C[C@]1(O)[C@H](n2cc(F)c3c(N)ncnc32)O[C@](F)(COP(=O)(O)OP(=O)(O)OP(=O)(O)O)[C@H]1O [Compound 51] |  |  | > 5.52 | > 5.52 | > 5.52 | 
12 | C#C[C@@]1(O)[C@H](O)[C@@H](COP(=O)(O)OP(=O)(O)OP(=O)(O)O)O[C@H]1c1ccc2c(N)ncnn12 [Compound 52] |  |  | > 5.52 | > 5.52 | > 5.52 | 
13 | C#C[C@@]1(O)[C@H](O)[C@@H](COP(=O)(O)OP(=O)(O)OP(=O)(O)O)O[C@H]1c1cnc2c(N)ncnn12 [Compound 53] |  |  | > 5.52 | 4.52 to 5.52 | > 5.52 | 
14 | C#C[C@@]1(F)[C@H](O)[C@@H](COP(=O)(O)OP(=O)(O)OP(=O)(O)O)O[C@H]1c1cnc2c(N)ncnn12 [Compound 54] |  |  | 4.00 to 4.52 | 4.00 to 4.52 | > 5.52 | 
15 | C#C[C@]1(O)[C@H](n2cnc3c(=O)[nH]cnc32)O[C@](F)(COP(=O)(O)OP(=O)(O)OP(=O)(O)O)[C@H]1O [Compound 56] |  |  | > 5.52 | 4.52 to 5.52 | > 5.52 | 
16 | C#C[C@]1(O)[C@H](n2cnc3c(N)nc(F)nc32)O[C@](F)(COP(=O)(O)OP(=O)(O)OP(=O)(O)O)[C@H]1O [Compound 57] |  |  | > 5.52 | > 5.52 | > 5.52 | 
17 | C#C[C@@]1(O)[C@H](O)[C@@H](COP(=O)(O)OP(=O)(O)OP(=O)(O)O)O[C@H]1n1cc(F)c2c(N)ncnc21 [Compound 58] |  |  | > 5.52 | > 5.52 | > 5.52 | 
